pIC50: −log10 of the molar value.
Assays:
[1] = tested on: MDA-MB-231 cells embedded in collagen I; assay: ECM crosslinking by collagen and fibronectin immunofluorescence staining; format: cell-based, human
Experimental: FIG. 31. […] A. Inhibition of LOX activity in MDA-MB-231 cells treated with 5 μM of the LOX inhibitors. B. Doxorubicin sensitization with 6232 and its analogs, 6403 and 6415, in 3D collagen-I culture. C. Collagen and fibronectin staining of vehicle or 6232 or 6403 or 6415-treated MDA-MB-231 cells embedded in collagen I. BAPN is used as a positive control.
(§1) Immunofluorescence staining of cells was done in μ-Slide 8-well glass bottom chambers (Ibidi, Germany). Cells were fixed with 4% paraformaldehyde for 20 min, permeabilized with 0.5% Triton X-100 for 10 min and blocked in 5% BSA-PBS. Samples were incubated with primary (Collagen I, Fibronectin, F-actin, a-SMA) and secondary Alexa Fluor 647 or 488-labeled antibodies for 1.5 hours at room temperature. Cells were also counterstained with DAPI for 5 min. Images were acquired using ZEN 2012 SP5 (Black) LSM 700 (Carl Zeiss, DE).

MDA-MB-43614 = assay: Doxorubicin re-sensitization of collagen I-embedded TNBC cells; format: cell-based, human
MDA-MB-231 xenografts = assay: Acquired doxorubicin resistant xenografts; format: in vivo; conditions: BAPN 100 mg/kg added to doxorubicin 2.5 mg/kg
Experimental: To test the ability of LOX inhibition to overcome doxorubicin resistance in chemotherapy-refractory TNBC in vivo, the inventors first treated MDA-MB-231 xenografts with doxorubicin until an accelerated tumor growth was achieved.
At this point, BAPN (100 mg/kg) was added to half of the doxorubicin-resistant tumors while the rest continued to receive doxorubicin alone (2.5 mg/kg).
FIG. 26. Inhibiting LOX overcomes resistance in acquired doxorubicin resistant MDA-MB-231 xenografts. A. Tumor growth in xenografts treated with low dose doxorubicin until resistance develops followed by treatment with the combination of doxorubicin (2.5 mg/kg) and the LOX inhibitor, BAPN (100 mg/kg). B. Relative LOX activity in tumors from A. C. Representative images of Picrosirius red in tumors from A.

MDA-MB-15714 = assay: Doxorubicin re-sensitization of collagen I-embedded TNBC cells; format: cell-based, human
MDA-MB-231 cells = assay: Doxorubicin chemosensitization in 3D collagen I culture; format: cell-based, human; conditions: collagen I-embedded cells, combination with doxorubicin
Experimental: Collagen solution was prepared at a concentration of 0.5-1 mg/ml from the rat tail collagen I (Corning, USA) with a neutralization step including the addition of 1N NaOH solution. Cells were trypsinazed and resuspended in collagen:matrigel mix (1:1). 8×10^3 cells were seeded into 96-well or μ-Slide 8-well glass bottom chambers. After 1 hour of incubation at room temperature, media was added on top of the solidified collagen:matrigel mix. Drug treatments were done 12 hours after cell seeding.
Cells were embedded in type I collagen:matrigel mix as described above. Cells were grown in the presence of doxorubicin or LOX inhibitors alone or combination of LOX inhibitors with doxorubicin for 48 hours. After the treatment, cell viability was measured by using 3D Cell Titer Glo (Promega, USA) kit.

Caki-1 cells = assay: ECM crosslinking in kidney cancer cells; format: cell-based, human; conditions: 6232 at 10 uM, BAPN at 10 mM
Experimental: as §1

TM01278 PDX organoids = assay: PDX-derived TNBC organoids, combination with doxorubicin; format: cell-based, human; conditions: BAPN (25 mM) with doxorubicin (40 nM), 3D culture with collagen I, 9 days
Experimental: FIG. 36. Combination of 6403 and 6415 with doxorubicin reduced the growth of the TNBC organoids. A. Representative images of TM01278 PDX organoids at day 0 and day 9 after treatment with doxorubicin (50 nM) and 6403 and 6415 treatments, alone or in combination. B. Quantification of organoid diameter and viability upon combination therapy for 9 days.
TNBC organoids were established from a fresh surgical tissue by cutting the tumor into small pieces and incubating in collagenase A solution with ROCK inhibitor on a shaker at 37° C. for 30 minutes. The collagenase activity was inhibited by adding FBS, and pipetting was done to ensure the formation of almost a single cell solution. After several washes with PBS, the cell pellet was dissolved in matrigel. Breast organoid media containing ROCK and GSK inhibitors was added after the Matrigel solidified. See, Sachs, N. et al. A Living Biobank of Breast Cancer Organoids Captures Disease Heterogeneity. Cell 172, 373-386 e310, doi:10.1016/j.cell.2017.11.010 (2018). For drug testing studies, organoids were disrupted to single cells by digesting at 37° C. for 30 mins with TrypLE (A1217701, Gibco, NY, USA) in the presence of 10 μM Rock inhibitor (s1049, Selleckchem, TX, USA). Organoids were plated into wells of 96 well plate (20.000 cells/well) on a collagen-coated surface with media containing 2% Matrigel (356252, Corning, NY, USA). Drugs were added 72 hours after plating. Cells were grown in the presence of drug or vehicle for 9 days, and photos were taken from each well to show the organoid size. Organoid viability was measured by using 3D Cell Titer Glo (Promega, USA) kit.

TM01278 PDX = assay: Doxorubicin-resistant TNBC PDX tumors; format: in vivo
Experimental: FIG. 27. Targeting LOX in TNBC PDX organoids or tumors overcomes resistance. A. Scheme showing the selection pipeline of PDXs for in vivo testing. B. Correlation analysis of LOX mRNA expression with hypoxia and focal adhesion scores in 15 different TNBC PDX models. Red dots show the positions of the selected TM01278. C. Representative images of TM01278 PDX organoids at day 0 and day 9 after treatment with doxorubicin (40 nM) and BAPN (25 mM) treatment, alone or in combination (left) and quantification of organoid diameter upon combination therapy for 9 days (right) (n=12 (vehicle, Doxo, BAPN), n=11 (Doxo+BAPN)). D. Tumor growth of TM01278 PDX upon treatment with doxorubicin (2 mg/kg) and BAPN (100 mg/kg), alone or in combination (n=5). […] E. Quantification of Picrosirius red staining in PDX tumors from D (n=4). F. Doxorubicin fluorescence quantification in tumors from D (n=6). G. Western Blots of FAK/Src signaling in PDXs treated with doxorubicin and BAPN alone or in combination.

[2] = tested on: cellular lysyl oxidase (LOX) activity, MDA-MB-231 cells; assay: Cell-based lysyl oxidase activity assay (Abcam kit); design: species or system human; conditions: read-out: IC50 for cellular lysyl oxidase inhibition
Text: As the available LOX inhibitors are either not very potent or have toxicity, the inventors developed a robust screening pipeline shown in FIG. 28 to identify potent and safe LOX-specific and pan-LOX inhibitors. Briefly, a high-throughput cell-based LOX activity (Abcam) screen (HTS) was done for more than 5,000 drug-like compounds from the EXPRESS-Pick diversified library (4,480 molecules, ChemBridge) and Tocriscreen library of bioactive compounds (1,280 compounds, Tocris), each at a single concentration of 10 μM. […] The toxic molecules were counter screened with cell cytotoxicity assay and filtered out.
FIGS. 34. […] IC50 for cellular lysyl oxidase activity upon treatment of MDA-MB-231 cells with different LOX inhibitors. uM=microM.
For cell-based lysyl oxidase activity, fluorometric Lysly Oxidase Activity Assay Kit (Abcam, USA) was used according to manufacturer's instructions. Briefly, after the treatment, 50 μl of supernatant from each well was incubated with reagent mix and fluorescence measured in multimode-reader at Ex/Em=540/590 nm wavelength.

[3] = in vivo; cited from earlier work

## N#CCCN [BAPN, 6-aminopropionitrile]
[1]
  ECM crosslinking (collagen and fibronectin staining): decrease in ECM crosslinking
MDA-MB-43614
  doxorubicin re-sensitization: re-sensitized
MDA-MB-231 xenografts
  LOX activity in tumors: reduction in LOX activity
  fibrillar collagen in tumors: reduction
  survival: improved survival
  tumor growth: significant decrease in tumor growth
MDA-MB-15714
  doxorubicin re-sensitization: re-sensitized
MDA-MB-231 cells
  doxorubicin sensitization: re-sensitized
Caki-1 cells
  ECM crosslinking: decrease in ECM crosslinking
TM01278 PDX organoids
  tumor organoid size: significantly decreased tumor organoid size
TM01278 PDX; BAPN 100 mg/kg
  LOX activity: reduced
  doxorubicin penetration: enhanced doxorubicin penetration
  fibrillar collagen content: reduced
TM01278 PDX; BAPN 100 mg/kg with doxorubicin 2 mg/kg
  tumor growth: reduced tumor growth
[2]
  pIC50: < 4.00
[3]
  toxicity in the clinic: showed toxicity in the clinic
